# Laboratory results: US8709434B2, “Compositions for inhibiting NADPH oxidase activity” (PCB Associates, Inc., priority 2006, dated 2014)
# How the values were obtained:
# [1] = system: NADPH oxidase; assay: NADPH-induced superoxide production by cellular NADPH oxidase, lucigenin chemiluminescence, human renal mesangial cells; format: cell-based; conditions: for inhibition of NADPH oxidase superoxide production: 300 nM to 20 μM for 1 h
# Protocol: Human cell cultures derived from renal mesangial tissue were incubated with NADPH to induce superoxide production by cellular NADPH oxidase. Superoxide production was quantified by lucigenin chemiluminescence. Lucigenin is a specific detector of superoxide. […] Phycocyanobilin (PCB, FIG. 3A) or biliverdin (BVD, FIG. 3B) were added to the NADPH-treated cell cultures in concentrations ranging from 300 nM to 20 μM. Biliverdin is another known inhibitor of NADPH oxidase.
# (§1) Human mesangial cells were purchased from Clonetics (East Rutherford, N.J.). The smooth muscle cells were cultured in a Mesangial Cell Growth Medium (Clonetics) containing 5% fetal calf serum. The cells from 2nd to 5th passages were used in the experiments. Cellular production of superoxide anion was determined by the lucigenin method. For the experiments, cells were detached with trypsin/EDTA and resuspended in modified HEPES buffer containing 140 mM NaCl, 5 mM KCl, 0.8 mM MgCl2, 1.8 mM CaCl2, 1 mM Na2HPO4, 25 mM HEPES, and 1% glucose (pH7.2), and incubated with or without various concentrations of phycocyanobilin (PCB) or biliverdin (BVD) from 300 nM to 20 μM for 1 h. Immediately before recording, NADPH (100 μM) and dark-adapted lucigenin (5 μM) were added to cell suspension. Light emission was recorded every minute for 20 min and was expressed as mean arbitrary light unit/min. Experiments were performed in triplicate. In experiments with inhibition of NAD(P)H oxidase, diphenylene iodonuim cloride (DPI, 10^−5 M), an inhibitor of NAD(P)H oxidase, was added 10 min before NADPH addition and recording of chemiluminescence.
# [2] = system: NADPH oxidase; assay: NADPH-induced superoxide production by cellular NADPH oxidase, lucigenin chemiluminescence, human aortic smooth muscle cells; format: cell-based; conditions: for inhibition of NADPH oxidase superoxide production: 300 nM to 20 μM for 1 h
# Protocol: Human cell cultures derived from aortic smooth muscle were incubated with NADPH to induce superoxide production by cellular NADPH oxidase. Superoxide production was quantified by lucigenin chemiluminescence. Lucigenin is a specific detector of superoxide. […] Phycocyanobilin (PCB, FIG. 2A) or biliverdin (BVD, FIG. 2B) were added to the NADPH-treated cell cultures in concentrations ranging from 300 nM to 20 μM. Biliverdin is another known inhibitor of NADPH oxidase.
# as §1, with “aortic smooth muscle” for “mesangial”, “Smooth Muscle” for “Mesangial”, “chemiluminescence. This is the first experiment to see the effect of purified phycocyanobilin on NADPH oxidase activity using human aortic smooth muscle cells.” for “chemiluminescence.”
# [3] = system: NADPH oxidase; assay: NADPH-induced superoxide production by cellular NADPH oxidase, lucigenin chemiluminescence, human aortic endothelial cells; format: cell-based; conditions: for inhibition of NADPH oxidase superoxide production: 300 nM to 20 μM for 1 h
# Protocol: Human cell cultures derived from aortic endothelium were incubated with NADPH to induce superoxide production by cellular NADPH oxidase. Superoxide production was quantified by lucigenin chemiluminescence. Lucigenin is a specific detector of superoxide. […] Phycocyanobilin (PCB, FIG. 1A) or biliverdin (BVD, FIG. 1B) were added to the NADPH-treated cell cultures in concentrations ranging from 300 nM to 20 μM. Biliverdin is another known inhibitor of NADPH oxidase.
# as §1, with “aortic endothelial” for “mesangial”, “endothelial cell” for “smooth muscle cells”, “endothelial cell basal medium” for “a Mesangial Cell Growth Medium”, “supplemented with hFGF-B, VEGF, IGF-1, ascorbic acid hEGF, hydrocortisone and 2%” for “containing 5%”, “chemiluminescence. This is the first experiment to see the effect of purified phycocyanobilin on NADPH oxidase activity using human aortic endothelial cells.” for “chemiluminescence.”
# [4] = oral administration, compared with bilirubin; cited from earlier work
# [5] = compared with bilirubin; cited from earlier work
# [6] = rats; cited from earlier work
# [7] = mice, concurrent administration; cited from earlier work
# [8] = oral, mice and rats, dose range 50-300 mg/kg/day; cited from earlier work
# [9] = mice, oral pre-treatment; cited from earlier work
# [10] = feeding to cholesterol-fed hamsters; cited from earlier work
# [11] = DPI 10^−5 M added 10 min before NADPH (100 μM)
compound,measurement,setting,value
"c1ccc2c(c1)[I+]c1ccccc1-2 [Diphenyleneiodonium, diphenylene iodonuim cloride]",inhibition of the excess superoxide production induced by added NADPH,[1]; [11],completely inhibit
same,inhibition of the excess superoxide production induced by added NADPH,[2]; [11],completely inhibit
same,inhibition of the excess superoxide production induced by added NADPH,[3]; [11],completely inhibit
C=CC1=C(C)/C(=C/C2=NC(=C\c3[nH]c(/C=C4\NC(=O)C(C)=C4C=C)c(C)c3CCC(=O)O)/C(CCC(=O)O)=C2C)NC1=O [biliverdin],inhibition of NADPH oxidase superoxide production,[1],dose-dependent inhibition
same,inhibition of NADPH oxidase superoxide production,[2],dose-dependent inhibition
same,bioavailability,[4],greater bioavailability than bilirubin
same,inhibition of NADPH oxidase superoxide production,[3],dose-dependent inhibition
same,solubility,[5],far more soluble than bilirubin
same,ischemia-reperfusion damage of transplanted organs,[6],ameliorates the ischemia-reperfusion damage
same,rejection of cardiac or renal allografts,[6],helps to prevent the rejection
same,colitis induced with oral dextran sodium sulfate,[7],substantially ameliorated
phycocyanin,anti-inflammatory effects,[8],dose-dependent anti-inflammatory effects
same,endotoxin-induced shock (severe hypotension and death),[9],considerable ameliorated
same,production of arterial fatty streaks,[10],inhibit the production of arterial fatty streaks quite markedly
phycocyanobilin,inhibition of NADPH oxidase superoxide production,[1],dose-dependent inhibition
same,inhibitory effect on NADPH oxidase activity compared with DPI,[1]; 20 μM,"less than that of DPI, but was statistically significant"
same,inhibition of NADPH oxidase superoxide production,[2],dose-dependent inhibition
same,inhibitory effect on NADPH oxidase activity compared with DPI,[2]; 20 μM,equivalent to that of DPI
same,inhibition of NADPH oxidase superoxide production,[3],dose-dependent inhibition
same,inhibitory effect on NADPH oxidase activity compared with DPI,[3]; 20 μM,equivalent to that of DPI
